# US20110184057A1, “PARENTERAL TREATMENT WITH STATINS” (priority 2008, published 2011)
# Test: Plasma lovastatin levels in rats after a single oral or dermal dose, by HMG-CoA reductase inhibition assay
# Assay type: in vivo, rat
# Settings: intact rats, single dose, 1, 3, 6 and 24 hours; dermal in 100% DMSO vs oral gavage in 0.5% methylcellulose
# Experimental: For oral administration, a suspension of lovastatin was prepared in 0.5% methylcellulose and administered by gavage.
compound,measurement,value
CC[C@H](C)C(=O)O[C@H]1C[C@@H](C)C=C2C=C[C@H](C)[C@H](CC[C@@H]3C[C@@H](O)CC(=O)O3)[C@H]21 [lovastatin],"plasma concentrations of lovastatin, dermal versus oral","greater, less variable and more prolonged than when the drug was given orally"
